ChEMBL document CHEMBL5576070, “The recent discovery of a promising pharmacological scaffold derived from carvacrol: A review” (Bioorg Med Chem Lett, 2024)
Values after ≈ are worked out from the molar mass of the structure shown.

What was measured:
[1] = biological target: Cholinesterase (Homo sapiens, UniProt P06276); test: Inhibition of human BChE using butyrylthiocholine iodide as substrate incubated for 15 mins by spectrophotometric Ellman's method
[2] = biological target: T1, Acetylcholinesterase (Homo sapiens, UniProt P22303); test: Inhibition of AChE (unknown origin)
[3] = tested on: Salmonella typhimurium; test: Antibacterial activity against Salmonella typhimurium DT104 assessed as inhibition of bacterial growth incubated for 18 hrs by CLSI protocol based microbroth dilution method; format: functional, Salmonella enterica subsp. enterica serovar Typhimurium; conditions: Salmonella enterica
[4] = tested on: Staphylococcus epidermidis; test: Antimicrobial activity against Staphylococcus epidermidis ATCC 12228 assessed as reduction in bacterial growth incubated for 24 hrs by Mueller-Hinton agar based analysis; format: functional
[5] = tested on: Staphylococcus aureus; test: Antimicrobial activity against Staphylococcus aureus […] assessed as reduction in bacterial growth incubated for 24 hrs by Mueller-Hinton agar based analysis; format: functional
[6] = tested on: Pseudomonas aeruginosa; test: Antibacterial activity against Pseudomonas aeruginosa ATCC 15442 assessed as reduction in bacterial growth incubated for 24 hrs by Mueller-Hinton agar based analysis; format: functional
[7] = tested on: Escherichia coli; test: Antibacterial activity against Escherichia coli assessed as reduction in bacterial growth incubated for 24 hrs by Mueller-Hinton agar based analysis; format: functional
[8] = tested on: Bacillus subtilis; test: Antibacterial activity against Bacillus subtilis assessed as zone of inhibition; format: functional
[9] = tested on: Staphylococcus aureus; test: Antibacterial activity against Staphylococcus aureus ATCC 25923 assessed as zone of inhibition by agar diffusion method; format: functional
[10] = tested on: Proteus vulgaris; test: Antimicrobial activity against Proteus vulgaris NCIM 2813 assessed as zone of inhibition incubated for 24 hrs by agar diffusion method; format: functional
[11] = tested on: Clostridium perfringens; test: Antibacterial activity against Clostridium perfringens assessed as bacterial growth inhibition after 24 hrs by microdilution method; format: functional
[12] = tested on: Escherichia coli; test: microbe, parasite or virus in culture; conditions: ATCC 25922, 24 h
[13] = tested on: Phytophthora capsici; test: Antifungal activity against Phytophthora capsici; format: functional, organism-based
[14] = biological target: T1, Acetylcholinesterase; test: Inhibition of AChE (unknown origin) using acetylthiocholine iodide as substrate by Ellman's method
[15] = tested on: Escherichia coli; test: Antibacterial activity against Escherichia coli ATCC 25922 assessed as zone of inhibition incubated for 24 hrs by agar diffusion method; format: functional
[16] = tested on: MIA PaCa-2; test: Growth inhibition of human MIA PaCa-2 cells measured for 48 hrs by SRB assay; format: functional
[17] = biological target: Mushroom tyrosinase (Agaricus bisporus, UniProt O42713+Q00024+C7FF04+C7FF05); test: Inhibition of mushroom tyrosinase using L-DOPA as substrate by spectrophotometric analysis; format: protein assay
[18] = Antioxidant activity assessed as DPPH radical scavenging activity incubated for 20 mins by spectrophotometric method; format: functional
[19] = tested on: Pseudomonas aeruginosa; test: Antibacterial activity against Pseudomonas aeruginosa ATCC 27853 assessed as bacterial growth inhibition measured after 18 hrs by CLSI protocol based two-fold serial microdilution method; format: functional
[20] = tested on: Clostridium perfringens; test: Antibacterial activity against Clostridium perfringens assessed as inhibition of bacterial growth incubated for 18 hrs by CLSI protocol based microbroth dilution method; format: functional
[21] = tested on: Salmonella typhimurium; test: Antibacterial activity against Salmonella typhimurium DT104 assessed as reduction in bacterial growth inhibition; format: functional, Salmonella enterica subsp. enterica serovar Typhimurium
[22] = tested on: Escherichia coli; test: Antibacterial activity against Escherichia coli assessed as reduction in bacterial growth by broth microdilution method; format: functional
[23] = tested on: Salmonella enteritidis; test: Antibacterial activity against Salmonella enterica subsp. enterica serovar Enteritidis assessed as reduction in bacterial growth inhibition; format: functional
[24] = tested on: Escherichia coli; test: Antibacterial activity against Escherichia coli assessed as reduction in bacterial growth inhibition; format: functional
[25] = tested on: Candida albicans; test: Fungicidal activity against Candida albicans assessed as reduction in fungal growth measured after 48 hrs by CLSI protocol based microdilution method; format: functional
[26] = tested on: Candida albicans; test: Antifungal activity against Candida albicans assessed as reduction in fungal growth incubated for 24 hrs by broth microdilution method; format: functional
[27] = tested on: Clostridium perfringens; test: Antibacterial activity against Clostridium perfringens assessed as reduction in bacterial growth inhibition; format: functional
[28] = tested on: Helicobacter pylori; test: Antibacterial activity against Helicobacter pylori assessed as reduction in bacterial growth incubated for 24 hrs by broth micro-dilution method; format: functional

T1 sequence (P22303 whole entry): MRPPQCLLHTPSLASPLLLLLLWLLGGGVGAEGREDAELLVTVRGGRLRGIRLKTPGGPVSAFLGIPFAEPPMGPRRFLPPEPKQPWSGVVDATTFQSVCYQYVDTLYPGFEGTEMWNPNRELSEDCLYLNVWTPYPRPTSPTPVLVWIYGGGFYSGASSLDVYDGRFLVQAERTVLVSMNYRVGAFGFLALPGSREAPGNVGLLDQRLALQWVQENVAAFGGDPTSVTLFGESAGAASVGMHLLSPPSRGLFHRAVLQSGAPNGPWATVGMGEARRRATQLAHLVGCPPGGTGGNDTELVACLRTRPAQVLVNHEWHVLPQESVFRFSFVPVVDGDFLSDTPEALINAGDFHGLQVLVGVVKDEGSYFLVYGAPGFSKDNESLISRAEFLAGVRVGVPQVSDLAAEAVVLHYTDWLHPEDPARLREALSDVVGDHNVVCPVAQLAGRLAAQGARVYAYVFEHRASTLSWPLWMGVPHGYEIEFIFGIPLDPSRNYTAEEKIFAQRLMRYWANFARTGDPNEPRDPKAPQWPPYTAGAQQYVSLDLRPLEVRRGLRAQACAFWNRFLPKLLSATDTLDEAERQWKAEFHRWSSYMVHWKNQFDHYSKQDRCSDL
Cholinesterase, sequence (P06276 whole entry): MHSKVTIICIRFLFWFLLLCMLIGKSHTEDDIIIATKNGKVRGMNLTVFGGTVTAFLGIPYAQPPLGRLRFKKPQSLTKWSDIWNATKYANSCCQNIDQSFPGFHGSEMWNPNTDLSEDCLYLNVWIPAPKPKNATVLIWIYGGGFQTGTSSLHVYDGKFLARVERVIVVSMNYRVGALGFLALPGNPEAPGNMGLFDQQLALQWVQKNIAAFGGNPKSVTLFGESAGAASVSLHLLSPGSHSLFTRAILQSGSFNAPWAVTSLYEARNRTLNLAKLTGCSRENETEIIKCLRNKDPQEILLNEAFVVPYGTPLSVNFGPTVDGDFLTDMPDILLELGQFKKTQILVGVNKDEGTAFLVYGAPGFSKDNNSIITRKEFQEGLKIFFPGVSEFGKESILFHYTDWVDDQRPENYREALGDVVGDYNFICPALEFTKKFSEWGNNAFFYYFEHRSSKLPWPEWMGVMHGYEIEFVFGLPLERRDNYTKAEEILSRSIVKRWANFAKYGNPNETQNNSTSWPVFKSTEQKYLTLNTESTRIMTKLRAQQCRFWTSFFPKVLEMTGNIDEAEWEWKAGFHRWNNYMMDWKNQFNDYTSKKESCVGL

Compound `Cc1ccc(C(C)C)cc1OCC(=O)NCCN1CCOCC1` has an IC50 [1] of 50 nM and an IC50 [2] of 1930 nM.
With `CCOc1cc(C(C)C)ccc1C` the MIC [3] was 0.2 µg/mL (≈ 1.12 µM).
In the case of `C=CCSC[C@H](NC(C)=O)C(=O)Oc1cc(C(C)C)ccc1C`, the MIC [4] is reported as 2.5 µg/mL (≈ 7.45 µM), the MIC [5] is reported as 2.5 µg/mL (≈ 7.45 µM) and the MIC [6] is reported as 5 µg/mL (≈ 14.9 µM). It also gave an MIC [7] of 2.5 µg/mL (≈ 7.45 µM).
In the case of `Cc1ccc(C(C)C)cc1OCC(=O)NCCC1=CCCCC1`, the IC50 [1] is reported as 50 nM and the IC50 [2] is reported as 1930 nM.
With `Cc1ccc(C(C)C)cc1OCC(=O)Nc1ccc(Cl)cc1` the “inhibition zone (IZ)” value [8] was 18 mm, the “inhibition zone (IZ)” value [9] was 20 mm and the “inhibition zone (IZ)” value [10] was 10 mm.
With `Cc1ccc(C(C)C)cc1OCC(=O)N(C(C)C)C(C)C` the IC50 [1] was 50 nM and the IC50 [2] was 1930 nM.
`Cc1ccc(C(C)C)cc1OC(=O)Cn1c([N+](=O)[O-])cnc1C` showed an MIC [11] of 2.7 µg/mL (≈ 8.51 µM).
Compound `CCC(=O)Oc1cc(C(C)C)ccc1C` has an MIC [12] of 11.7 µg/mL (≈ 56.7 µM).
With `Cc1ccc(C(C)C)cc1OCCn1c([N+](=O)[O-])cnc1C` the MIC [11] was 1 µg/mL (≈ 3.3 µM).
`Cc1ccc(C(C)C)cc1OCC(=O)NCCN1CCCC1` showed an IC50 [1] of 50 nM and an IC50 [2] of 1930 nM.
Compound `Cc1ccc(C(C)C)cc1OS(=O)(=O)c1cccs1` has an EC50 [13] of 0.06124 µg/mL (≈ 0.207 µM).
`Cc1ccc(C(C)C)cc1OCC(=O)NCCNc1cccc2cccnc12` showed an IC50 [1] of 50 nM and an IC50 [2] of 1930 nM.
Compound `Cc1ccc(C(C)C)cc1OCC(O)CNC(C)(C)C` (centres undefined) has an IC50 [14] of 136 nM.
With `Cc1ccc(C(C)C)cc1OC(=O)C(C)C` the MIC [12] was 11.7 µg/mL (≈ 53.1 µM).
`CC(=O)Oc1cc(C(C)C)ccc1C` showed an MIC [12] of 11.7 µg/mL (≈ 60.9 µM).
`Cc1ccc(C(C)C)cc1OCC(=O)NCCN1CCN(C)CC1` showed an IC50 [1] of 50 nM and an IC50 [2] of 1930 nM.
With `Cc1ccc(C(C)C)cc1OCC(=O)NNS(=O)(=O)c1ccc(Cl)cc1` the “inhibition zone (IZ)” value [15] was 10 mm.
`Cc1ccc(C(C)C)c(/C=N/c2c(C(C)C)ccc(C)c2O)c1O` gave a GI50 [16] of 16.9 µg/mL (≈ 51.9 µM).
With `Cc1ccc(C(C)C)cc1OCC(O)CNCc1cccnc1` (centres undefined) the IC50 [14] was 136 nM.
Compound `Cc1ccc(C(C)C)cc1OC(=O)COC(=O)c1ccc(O)c(O)c1` has an IC50 [17] of 15900 nM.
For `Cc1ccc(C(C)C)cc1OCC(=O)O`, the MIC [3] was 0.1 µg/mL (≈ 0.48 µM).
In the case of `Cc1ccc(C(C)C)cc1OCC(=O)Nc1ccccc1`, the “inhibition zone (IZ)” value [8] is reported as 8 mm.
In the case of `Cc1cc(Cc2cc(C)c(O)cc2C(C)C)c(C(C)C)cc1O`, the IC50 [18] is reported as 122 µg/mL (≈ 390 µM).
With `C=CCOc1cc(C(C)C)ccc1C` the MIC [19] was 110 µg/mL (≈ 578 µM) and the MIC [20] was 110 µg/mL (≈ 578 µM).
In the case of `Cc1ccc(C(C)C)cc1OC(=O)CCCC[C@@H]1CCSS1`, the MIC [4] is reported as 10 µg/mL (≈ 29.5 µM), the MIC [5] is reported as 10 µg/mL (≈ 29.5 µM) and the MIC [6] is reported as 5 µg/mL (≈ 14.8 µM). For the same compound, the MIC [7] was 5 µg/mL (≈ 14.8 µM).
Compound `C=CCNCC(O)COc1cc(C(C)C)ccc1C` (centres undefined) has an IC50 [14] of 136 nM.
Compound `Cc1ccc(C(C)C)cc1O` [CARVACROL] has an MIC [4] of 0.3 µg/mL (≈ 2 µM), an MIC [21] of 0.37 %v/v and an MIC [22] of 450 µg/mL (≈ 3000 µM). It also gave an MIC [5] of 0.6 µg/mL (≈ 3.99 µM), an MIC [23] of under 0.09 %v/v and an MIC [6] of 5 µg/mL (≈ 33.3 µM). For the same compound, the “inhibition zone (IZ)” value [8] was 13 mm, the IC50 [18] was 267 µg/mL (≈ 1780 µM) and the MIC [7] was 0.6 µg/mL (≈ 3.99 µM). The MIC [24] was under 0.09 %v/v, the MFC [25] was 512 µg/mL (≈ 3410 µM) and the MIC [26] was 256 µg/mL (≈ 1700 µM). The MIC [27] was under 0.09 %v/v and the “inhibition zone (IZ)” value [10] was 7 mm.
Compound `Cc1ccc(C(C)C)cc1OCc1ccc(S(C)(=O)=O)cc1` has an MIC [28] of 2 µg/mL (≈ 6.28 µM).
With `CSC[C@H](NC(C)=O)C(=O)Oc1cc(C(C)C)ccc1C` the MIC [4] was 2.5 µg/mL (≈ 8.08 µM), the MIC [5] was 10 µg/mL (≈ 32.3 µM) and the MIC [6] was 10 µg/mL (≈ 32.3 µM). For the same compound, the MIC [7] was 10 µg/mL (≈ 32.3 µM).
For `Cc1ccc(C(C)C)cc1OC(=O)[C@@H]1CSC(=O)N1`, the MIC [4] was 10 µg/mL (≈ 35.8 µM), the MIC [5] was 10 µg/mL (≈ 35.8 µM) and the MIC [6] was 10 µg/mL (≈ 35.8 µM). It also gave an MIC [7] of 10 µg/mL (≈ 35.8 µM).
Work on `Cc1ccc(C(C)C)cc1OC(=O)COC(=O)/C=C/c1ccc(O)cc1` yielded an IC50 [17] of 6500 nM.
In the case of `Cc1ccc(C(C)C)cc1OCC(=O)N1CCCCC1`, the IC50 [1] is reported as 50 nM and the IC50 [2] is reported as 1930 nM.
With `Cc1ccc(S(=O)(=O)N/N=C/c2c(C(C)C)ccc(C)c2O)cc1` the GI50 [16] was 10 µg/mL (≈ 28.9 µM).
Work on `CCC(C)(NC(=O)c1cc(Cl)c(C)c(Cl)c1)C(=O)CCl` (centres undefined) [ZOXAMIDE] yielded an EC50 [13] of 0.0268 µg/mL (≈ 0.0796 µM).
`C#CCSC[C@H](NC(C)=O)C(=O)Oc1cc(C(C)C)ccc1C` gave an MIC [4] of 5 µg/mL (≈ 15 µM), an MIC [5] of 10 µg/mL (≈ 30 µM) and an MIC [6] of 10 µg/mL (≈ 30 µM). The MIC [7] was 10 µg/mL (≈ 30 µM).
`Cc1ccc(C(C)C)cc1OC(=O)COC(=O)/C=C/c1ccccc1` showed an IC50 [17] of 7700 nM.
